Structures are written as SMILES.

For assay [1], the target named is human activated kallikrein enzyme (Homo sapiens, UniProt P03952). The assay can be described thus: Plasma kallikrein inhibition, fluorogenic PFR-AMC substrate, 500 pM activated kallikrein format. In kind it is biochemical. Conditions: 500 pM activated kallikrein, 300 uM PFR-AMC, 30 min preincubation, 10 min reaction; read-out: Primary Dose Response Assay: Average EC50. The method in brief: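 500 pM enz + cpd, 30 min RT preinc; start w/ PFR-AMC 300 uM; 10 min RT; Ex380/Em460. Buffer: Tris 20 mM pH 7.5, EDTA 1 mM, NaCl 150 mM, PEG-400 0.1%, Triton 0.1%. EC50.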

Assay [2] concerns the target T1, plasma kallikrein (Homo sapiens, UniProt P03952).
T1 construct: from tissue
The assay can be described thus: Neat human plasma assay, FXIIa contact pathway-activated, PFR-AMC substrate. The assay is classed as biochemical. The following applies: citrated human plasma 78% final, 10 nM human FXIIa, 100 μM PFR-AMC; read-out: Human Plasma Assay: IC90. The method in brief:
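Citrated human plasma (78% final) with compound, contact-activated by 10 nM human FXIIa in pKal buffer pH 7.5, with 100 μM PFR-AMC. Fluorescence (360/480 nm) followed 5 min at room temperature; rates versus concentration fitted by 4-parameter equation for IC50/IC90.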

T1 sequence (P03952 391-638 limits assumed): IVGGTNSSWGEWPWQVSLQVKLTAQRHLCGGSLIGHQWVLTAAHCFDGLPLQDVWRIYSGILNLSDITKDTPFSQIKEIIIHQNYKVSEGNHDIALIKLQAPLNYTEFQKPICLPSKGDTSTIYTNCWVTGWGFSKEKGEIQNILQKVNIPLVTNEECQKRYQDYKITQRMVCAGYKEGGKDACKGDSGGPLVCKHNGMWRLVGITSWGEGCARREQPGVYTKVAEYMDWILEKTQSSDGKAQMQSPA
T1 sequence (P03952 20-390 partner limits assumed): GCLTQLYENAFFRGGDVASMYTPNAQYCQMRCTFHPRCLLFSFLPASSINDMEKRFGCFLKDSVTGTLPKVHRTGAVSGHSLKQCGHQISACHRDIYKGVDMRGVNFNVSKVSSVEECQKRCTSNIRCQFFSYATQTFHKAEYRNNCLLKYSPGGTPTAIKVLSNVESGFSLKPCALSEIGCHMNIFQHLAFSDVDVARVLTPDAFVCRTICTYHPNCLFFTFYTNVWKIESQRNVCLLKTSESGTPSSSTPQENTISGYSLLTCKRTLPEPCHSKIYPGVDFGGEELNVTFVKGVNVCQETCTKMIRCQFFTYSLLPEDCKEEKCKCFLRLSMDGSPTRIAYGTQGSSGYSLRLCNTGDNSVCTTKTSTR
human activated kallikrein enzyme, sequence (P03952 391-638 limits assumed): as the sequence (P03952 391-638 limits assumed) above
human activated kallikrein enzyme, sequence (P03952 20-390 partner limits assumed): as the sequence (P03952 20-390 partner limits assumed) above

In general, EC50 refers to the concentration at which the effect is half-maximal. The term IC90 denotes the point of the concentration-response curve where the effect stands at 90%. `O=C(Nc1cc(NCc2cn3cc(C4CC4)ccc3n2)ccn1)[C@H]1C[C@@H]1c1cc(Cl)ccn1` (racemic) [Example I-268, rac-(1S*,2S*)-2-(4-chloropyridin-2-yl)-N-(4-(((6-cyclopropylimidazo[1,2-a]pyridin-2-yl)methyl)amino)pyridin-2-yl)cyclopropane-1-carboxamide]: the concentration for a half-maximal effect (EC50) in assay [1] is < 1 nM. Further, the concentration for an effect of 90% (IC90) in assay [2] was in the range of 10000 to 48000 nM.

As for `O=C(Nc1cc(NCc2cn3cc(C4CC4)cc(N4C[C@@H](O)CC4=O)c3n2)ncn1)[C@H]1C[C@@H]1c1cccc(Cl)c1` (relative stereo) [Example 62, (rac-(1S*,2S*))-2-(3-chlorophenyl)-N-(6-(((6-cyclopropyl-8-((S)-4-hydroxy-2-oxopyrrolidin-1-yl)imidazo[1,2-a]pyridin-2-yl)methyl)amino)pyrimidin-4-yl)cyclopropane-1-carboxamide], the EC50 in assay [1] lay within 1 to 10 nM. For the same molecule, the IC90 in assay [2] lay in the range of 1500 to 10000 nM.

Consider `Cc1ccnc([C@H]2C[C@@H]2C(=O)Nc2cc(NCc3cn4cc(C5CC5)cc(N5CC6CC6C5=O)c4n3)ncn2)n1` (relative stereo) [Example 317, rac-(1S*,2S*)—N-(6-(((6-cyclopropyl-8-(2-oxo-3-azabicyclo[3.1.0]hexan-3-yl)imidazo[1,2-a]pyridin-2-yl)methyl)amino)pyrimidin-4-yl)-2-(4-methylpyrimidin-2-yl)cyclopropane-1-carboxamide], for which the EC50 in assay [1] is < 1 nM. Further, the IC90 in assay [2] was 1500 to 10000 nM.

As to `Cc1ccnc([C@H]2C[C@@H]2C(=O)Nc2cc(NC(C)c3cn4cc(C5CC5)cc(N5CC(=O)N(C)C5=O)c4n3)ncn2)n1` (relative stereo) [Example 449, rac-(1S*,2S*)—N-(6-((1-(6-cyclopropyl-8-(3-methyl-2,4-dioxoimidazolidin-1-yl)imidazo[1,2-a]pyridin-2-yl)ethyl)amino)pyrimidin-4-yl)-2-(4-methylpyrimidin-2-yl)cyclopropane-1-carboxamide], in assay [1], the concentration for a half-maximal effect (EC50) is < 1 nM. The IC90 in assay [2] was in the range of 1500 to 10000 nM.

Consider `Cc1ccnc([C@H]2C[C@@H]2C(=O)Nc2cc(N3C[C@@H](O)C[C@@H]3c3cn4cc([C@H]5C[C@@H]5C)ccc4n3)ncn2)n1` (relative stereo) [Example 470, (1S,2S)-N-(6-((2R,4S)-4-hydroxy-2-(6-((1S*,2S*)-2-methylcyclopropyl)imidazo[1,2-a]pyridin-2-yl)pyrrolidin-1-yl)pyrimidin-4-yl)-2-(4-methylpyrimidin-2-yl)cyclopropane-1-carboxamide], for which the EC50 in assay [1] fell in the range of 1 to 10 nM. The IC90 in assay [2] was in the range of 1500 to 10000 nM.

Take `Cc1ccnc([C@H]2C[C@@H]2C(=O)Nc2cc(N3C[C@@H](O)C[C@@H]3c3cn4cc(C5CC5)cc(N5CCOC5=O)c4n3)ncn2)n1` (relative stereo) [Example 471, rac-(1S*,2S*)-N-(6-((2R,4S)-2-(6-cyclopropyl-8-(2-oxooxazolidin-3-yl)imidazo[1,2-a]pyridin-2-yl)-4-hydroxypyrrolidin-1-yl)pyrimidin-4-yl)-2-(4-methylpyrimidin-2-yl)cyclopropane-1-carboxamide]: in assay [1], the half-maximal effective concentration (EC50) is < 1 nM. Also, the concentration for an effect of 90% (IC90) in assay [2] is 400 to 1500 nM.

Regarding `Cc1ccnc([C@H]2C[C@@H]2C(=O)Nc2cc(N3C[C@@H](O)C[C@@H]3c3cn4cc(C5CC5)ccc4n3)ncn2)c1` (relative stereo) [Example 472, rac-(1S*,2S*)-N-(6-((2R,4S)-2-(6-cyclopropylimidazo[1,2-a]pyridin-2-yl)-4-hydroxypyrrolidin-1-yl)pyrimidin-4-yl)-2-(4-methylpyridin-2-yl)cyclopropane-1-carboxamide], the EC50 in assay [1] is 1 to 10 nM. For the same molecule, in assay [2], the IC90 lay in the range of 1500 to 10000 nM.

Turning to `Cc1ccnc([C@H]2C[C@@H]2C(=O)Nc2cc(N3C[C@@H](O)C[C@@H]3c3cn4cc(C5CC5)cc(N5CC(=O)N(C)C5=O)c4n3)ncn2)n1` (relative stereo) [Example 473, rac-(1S*,2S*)-N-(6-((2R,4S)-2-(6-cyclopropyl-8-(3-methyl-2,4-dioxoimidazolidin-1-yl)imidazo[1,2-a]pyridin-2-yl)-4-hydroxypyrrolidin-1-yl)pyrimidin-4-yl)-2-(4-methylpyrimidin-2-yl)cyclopropane-1-carboxamide], the 50% effective concentration (EC50) in assay [1] is < 1 nM. Also, in assay [2], the 90% effect concentration (IC90) was 400 to 1500 nM.

On to `Cc1ccnc([C@H]2C[C@@H]2C(=O)Nc2cc(N3C[C@@H](O)C[C@@H]3c3cn4cc(C5CC5)cc(N5CC(=O)NC5=O)c4n3)ncn2)n1` (relative stereo) [Example 474, rac-(1S*,2S*)-N-(6-((2R,4S)-2-(6-cyclopropyl-8-(2,4-dioxoimidazolidin-1-yl)imidazo[1,2-a]pyridin-2-yl)-4-hydroxypyrrolidin-1-yl)pyrimidin-4-yl)-2-(4-methylpyrimidin-2-yl)cyclopropane-1-carboxamide], for which the concentration for a half-maximal effect (EC50) in assay [1] was < 1 nM. For the same molecule, the IC90 in assay [2] fell in the range of 400 to 1500 nM.

As to `Cc1ccnc([C@H]2C[C@@H]2C(=O)Nc2cc(N3C[C@@H](O)C[C@@H]3c3cn4cc(C5CC5)ccc4n3)ncn2)n1` (relative stereo) [Example 476, rac-(1S*,2S*)-N-(6-((2R,4S)-2-(6-cyclopropylimidazo[1,2-a]pyridin-2-yl)-4-hydroxypyrrolidin-1-yl)pyrimidin-4-yl)-2-(4-methylpyrimidin-2-yl)cyclopropane-1-carboxamide], the EC50 in assay [1] is < 1 nM. Besides, the 90% effect concentration (IC90) in assay [2] lay in the range of 1500 to 10000 nM.

Regarding `N#Cc1ccc(Cl)cc1[C@H]1C[C@@H]1C(=O)Nc1cc(N2C[C@@H](O)C[C@@H]2c2cn3cc(C4CC4)ccc3n2)ncn1` (relative stereo) [Example 477, rac-(1S*,2S*)-2-(5-chloro-2-cyanophenyl)-N-(6-((2R,4S)-2-(6-cyclopropylimidazo[1,2-a]pyridin-2-yl)-4-hydroxypyrrolidin-1-yl)pyrimidin-4-yl)cyclopropane-1-carboxamide], the half-maximal effective concentration (EC50) in assay [1] was in the range of 1 to 10 nM. In addition, in assay [2], the IC90 lay within 1500 to 10000 nM.

As for `O=C(Nc1cc(N2C[C@@H](O)C[C@@H]2c2cn3cc(C4CC4)ccc3n2)ncn1)[C@H]1C[C@@H]1c1nccc(Cl)n1` (relative stereo) [Example 481, rac-(1S*,2S*)-2-(4-chloropyrimidin-2-yl)-N-(6-((2R,4S)-2-(6-cyclopropylimidazo[1,2-a]pyridin-2-yl)-4-hydroxypyrrolidin-1-yl)pyrimidin-4-yl)cyclopropane-1-carboxamide], the EC50 in assay [1] was < 1 nM. Further, the IC90 in assay [2] fell in the range of 1500 to 10000 nM.

In the case of `Cc1ccnc([C@H]2C[C@@H]2C(=O)Nc2cc(N3C[C@@H](O)C[C@@H]3c3cn4cc(C5CC5)cc(N5CC6CC6C5=O)c4n3)ncn2)n1` (relative stereo) [Example 482, rac-(1S*,2S*)—N-(6-((2R,4S)-2-(6-cyclopropyl-8-(2-oxo-3-azabicyclo[3.1.0]hexan-3-yl)imidazo[1,2-a]pyridin-2-yl)-4-hydroxypyrrolidin-1-yl)pyrimidin-4-yl)-2-(4-methylpyrimidin-2-yl)cyclopropane-1-carboxamide], the concentration for a half-maximal effect (EC50) in assay [1] is < 1 nM. In addition, in assay [2], the IC90 was in the range of 400 to 1500 nM.

With `Cc1nc(NC(=O)[C@H]2C[C@@H]2c2ncc(F)c(C)n2)cc(N[C@H](C)c2cn3cc(C4CC4)cc(N4CC(=O)N(C)C4=O)c3n2)n1` (relative stereo) [Example 491, rac-(-(1S*,2S*)-N-(6-(((R)-1-(6-cyclopropyl-8-(3-methyl-2,4-dioxoimidazolidin-1-yl)imidazo[1,2-a]pyridin-2-yl)ethyl)amino)-2-methylpyrimidin-4-yl)-2-(5-fluoro-4-methylpyrimidin-2-yl)cyclopropane-1-carboxamide], the EC50 in assay [1] is < 1 nM. Further, the 90% effect concentration (IC90) in assay [2] is 400 to 1500 nM.

For the molecule `Cc1nc([C@H]2C[C@@H]2C(=O)Nc2cc(N[C@H](C)c3cn4cc(C5CC5)cc(N5CC(=O)N(C)C5=O)c4n3)ncn2)ncc1F` (relative stereo) [Example 492, rac-(-(1S*,2S*)-N-(6-(((R)-1-(6-cyclopropyl-8-(3-methyl-2,4-dioxoimidazolidin-1-yl)imidazo[1,2-a]pyridin-2-yl)ethyl)amino)pyrimidin-4-yl)-2-(5-fluoro-4-methylpyrimidin-2-yl)cyclopropane-1-carboxamide], the EC50 in assay [1] was < 1 nM. Moreover, in assay [2], the IC90 was in the range of 400 to 1500 nM.

Take `COc1ccnc([C@H]2C[C@@H]2C(=O)Nc2cc(N[C@H](C)c3cn4cc(C5CC5)cc(N5CC(=O)N(C)C5=O)c4n3)ncn2)n1` (relative stereo) [Example 529, rac-(1S*,2S*)-N-(6-(((R)-1-(6-cyclopropyl-8-(3-methyl-2,4-dioxoimidazolidin-1-yl)imidazo[1,2-a]pyridin-2-yl)ethyl)amino)pyrimidin-4-yl)-2-(4-methoxypyrimidin-2-yl)cyclopropane-1-carboxamide]: the EC50 in assay [1] was < 1 nM. Besides, the IC90 in assay [2] fell in the range of 400 to 1500 nM.

As to `Cc1ccnc([C@H]2C[C@@H]2C(=O)Nc2nccc(N3C[C@@H](O)C[C@@H]3c3cn4cc(C5CC5)cc(N5CC(=O)N(C)C5=O)c4n3)n2)n1` (relative stereo) [Example 541, rac-(1S*,2S*)—N-(4-((2R,4S)-2-(6-cyclopropyl-8-(3-methyl-2,4-dioxoimidazolidin-1-yl)imidazo[1,2-a]pyridin-2-yl)-4-hydroxypyrrolidin-1-yl)pyrimidin-2-yl)-2-(4-methylpyrimidin-2-yl)cyclopropane-1-carboxamide], the EC50 in assay [1] is < 1 nM. In addition, the IC90 in assay [2] is 400 to 1500 nM.

On to `Cc1ccnc([C@H]2C[C@@H]2C(=O)Nc2cc(OCc3cn4cc(C5CC5)cc(N5CC(=O)N(C)C5=O)c4n3)ncn2)n1` (single isomer, unassigned) [Example 30], for which, in assay [1], the concentration giving a half-maximal response (EC50) is < 1 nM. For the same molecule, in assay [2], the IC90 was < 400 nM.

On to `O=C(Nc1cc(NCc2cn3cc(C4CC4)ccc3n2)ncn1)[C@H]1C[C@@H]1c1cccc(Cl)c1` (single isomer, unassigned) [Example 57], for which the EC50 in assay [1] was 1 to 10 nM. Moreover, in assay [2], the 90% effect concentration (IC90) is > 48000 nM.
